{
  "source": "patent US10221144B2",
  "about": "“Antibacterial compounds having broad spectrum of activity” (priority 2014, dated 2019)",
  "assay_type_in_all_cases": "biochemical",
  "key": {"E. coli Topoisomerase IV": {"target": "T1, E. coli Topoisomerase IV (Escherichia coli, UniProt P0AFI2+P20083)", "T1 construct": "purchased Inspiralis, UK", "T1 sequence (P20083 whole entry)": "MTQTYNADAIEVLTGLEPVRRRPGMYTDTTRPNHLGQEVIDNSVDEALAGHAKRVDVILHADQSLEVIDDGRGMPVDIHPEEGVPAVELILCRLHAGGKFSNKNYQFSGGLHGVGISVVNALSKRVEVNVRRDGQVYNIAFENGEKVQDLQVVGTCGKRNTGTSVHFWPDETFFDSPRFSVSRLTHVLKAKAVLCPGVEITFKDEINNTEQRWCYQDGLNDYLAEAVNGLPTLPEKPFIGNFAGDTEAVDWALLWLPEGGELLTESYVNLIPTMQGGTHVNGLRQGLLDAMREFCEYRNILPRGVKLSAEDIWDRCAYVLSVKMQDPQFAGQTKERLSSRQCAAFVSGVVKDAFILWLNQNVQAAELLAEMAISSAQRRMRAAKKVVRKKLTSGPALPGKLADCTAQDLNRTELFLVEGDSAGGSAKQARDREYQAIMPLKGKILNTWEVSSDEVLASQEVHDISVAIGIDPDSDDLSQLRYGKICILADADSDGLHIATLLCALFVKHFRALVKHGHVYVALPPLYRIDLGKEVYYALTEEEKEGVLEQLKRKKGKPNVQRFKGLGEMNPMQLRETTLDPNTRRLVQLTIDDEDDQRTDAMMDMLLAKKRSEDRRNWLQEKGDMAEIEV", "T1 sequence (P0AFI2 whole entry)": "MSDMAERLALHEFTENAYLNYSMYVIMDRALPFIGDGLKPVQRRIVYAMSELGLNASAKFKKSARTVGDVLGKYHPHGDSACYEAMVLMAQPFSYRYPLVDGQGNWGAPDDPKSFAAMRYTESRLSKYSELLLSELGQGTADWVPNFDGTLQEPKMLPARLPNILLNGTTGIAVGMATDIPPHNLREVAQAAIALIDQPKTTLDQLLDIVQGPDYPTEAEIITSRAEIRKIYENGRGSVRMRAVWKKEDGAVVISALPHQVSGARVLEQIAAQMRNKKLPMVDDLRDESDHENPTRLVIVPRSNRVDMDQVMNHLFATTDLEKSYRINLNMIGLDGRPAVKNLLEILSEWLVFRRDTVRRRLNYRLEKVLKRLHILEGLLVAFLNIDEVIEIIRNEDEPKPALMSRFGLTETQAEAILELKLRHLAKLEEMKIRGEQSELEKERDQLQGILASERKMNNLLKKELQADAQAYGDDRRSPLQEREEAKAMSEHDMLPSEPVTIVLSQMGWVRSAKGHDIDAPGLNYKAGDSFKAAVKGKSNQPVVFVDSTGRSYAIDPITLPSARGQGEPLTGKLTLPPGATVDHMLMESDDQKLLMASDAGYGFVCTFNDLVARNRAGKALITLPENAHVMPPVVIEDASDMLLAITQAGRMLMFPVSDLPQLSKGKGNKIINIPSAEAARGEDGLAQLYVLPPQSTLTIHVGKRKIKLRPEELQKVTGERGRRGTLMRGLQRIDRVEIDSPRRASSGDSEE", "test": "Topoisomerase IV decatenation assay (E. coli)", "conditions": "for inhibition at 200 µM: conc. 200 μM", "method": "(§1) The above compounds were tested for the inhibition of the enzyme DNA gyrase in a gyrase supercoiling assay and for the inhibition of the enzyme topoisomerase IV in a decatenation assay, in both Gram positive and Gram negative bacteria, according to the following methods.\n(§2) Both the assays were carried out according to a set-up method modified from the article to Blanche F, et al. “Differential Behaviors of Staphylococcus aureus and Escherichia coli Type II DNA Topoisomerases”, Antimicrob. Agents Chemother., 1996, Vol. 40, No. 12 p. 2714-2720.\n(§3) The compounds were screened at single concentration (200, 100 or 50 μM), in duplicate.\nS. aureus and E. coli Topoisomerase IV decatenation kits (Inspiralis, UK) were used. A master mix with a total volume sufficient for the number of reactions to perform was prepared with the following reagents: 5× assay buffer (50 mM HEPES-KOH (pH 7.6), 100 mM potassium glutamate, 10 mM magnesium acetate, 10 mM DTT, 1 mM ATP, 50 μg/ml albumin), kDNA substrate (200 ng/reaction), RNase-DNase free water. Aliquots of this mix were dispensed in each tube, then 10× compound stock solutions or vehicle control (DMSO), were added in each reaction tube.\nReaction was started with Topoisomerase IV enzyme (0.5 U/reaction) addition.\n(§4) A sample added with an equal volume of dilution buffer was used as negative control (without enzyme).\nThe reaction tubes were gentle vortexed and incubated 30 minutes at 37° C. Each reaction was stopped by adding 30 μl of Stop Buffer and 30 μl of chloroform/isoamyl alcohol (24/1), briefly vortexed for 5-10 seconds and centrifuged at 20000×g for 2 minutes. Samples taken from the upper phase were loaded into 1% agarose gel and subjected to electrophoresis for 1 hour at 80V constant voltage in TAE (40 mM Tris-acetate, 2 mM EDTA).\nData acquisition and analysis. Due to the high molecular mass, kDNA could not enter an agarose gel under normal electrophoresis conditions, but remained in the wells. In the presence of Topo IV topoisomerase mini-circles (2.5 Kb) were released from kDNA by decatenation and were quickly and easily resolved in the gel at relatively high voltages.\nBands were visualized by ethidium bromide staining (dil 1:20000) for 30 minutes followed by destaining in distilled water for 10 minutes.\nFor single concentration screening assay, in order to evaluate the compounds activity on the enzymes, the bands of decatenated DNAs in the gel were photographed by a digital imaging system ImageQuant LAS 4000 (GE Healthcare) according to manufacturer's instructions.\n(§5) The fluorescent intensity of each band was analyzed by ImageQuant TL software and it was expressed as volume (volume of the uncalibrated quantity of material in the image feature after subtraction of the background intensity by using rolling ball method).\n(§6) Each band intensity was compared, as percentage, to vehicle sample band intensity, which served as positive control, on the same gel.\n(§7) Inhibitory activity was expressed as percent of inhibition versus the positive control.\n(§8) The supercoiled or decatenated DNA bands obtained as described in Example 1 were analysed as follows.\n(§9) Bands were analyzed by gel documentation equipment (Syngene, Cambridge, UK) and quantitated using Syngene Gene Tools software. Raw gel data (fluorescent band volumes) collected from Syngene, GeneTools gel analysis software were converted to a percentage of the 100% control (the fully supercoiled or decatenated DNA band). […] The IC50 data were calculated by using the global curve fit non-linear regression tool by selecting the Single, 2 Parameter fit function from the Exponential Decay equation category."}, "E. coli DNA gyrase": {"target": "T2, E. coli DNA gyrase (Escherichia coli, UniProt P0AES4+P0AES6)", "T2 construct": "purchased Inspiralis, UK", "T2 sequence (P0AES4 whole entry, one chain of several)": "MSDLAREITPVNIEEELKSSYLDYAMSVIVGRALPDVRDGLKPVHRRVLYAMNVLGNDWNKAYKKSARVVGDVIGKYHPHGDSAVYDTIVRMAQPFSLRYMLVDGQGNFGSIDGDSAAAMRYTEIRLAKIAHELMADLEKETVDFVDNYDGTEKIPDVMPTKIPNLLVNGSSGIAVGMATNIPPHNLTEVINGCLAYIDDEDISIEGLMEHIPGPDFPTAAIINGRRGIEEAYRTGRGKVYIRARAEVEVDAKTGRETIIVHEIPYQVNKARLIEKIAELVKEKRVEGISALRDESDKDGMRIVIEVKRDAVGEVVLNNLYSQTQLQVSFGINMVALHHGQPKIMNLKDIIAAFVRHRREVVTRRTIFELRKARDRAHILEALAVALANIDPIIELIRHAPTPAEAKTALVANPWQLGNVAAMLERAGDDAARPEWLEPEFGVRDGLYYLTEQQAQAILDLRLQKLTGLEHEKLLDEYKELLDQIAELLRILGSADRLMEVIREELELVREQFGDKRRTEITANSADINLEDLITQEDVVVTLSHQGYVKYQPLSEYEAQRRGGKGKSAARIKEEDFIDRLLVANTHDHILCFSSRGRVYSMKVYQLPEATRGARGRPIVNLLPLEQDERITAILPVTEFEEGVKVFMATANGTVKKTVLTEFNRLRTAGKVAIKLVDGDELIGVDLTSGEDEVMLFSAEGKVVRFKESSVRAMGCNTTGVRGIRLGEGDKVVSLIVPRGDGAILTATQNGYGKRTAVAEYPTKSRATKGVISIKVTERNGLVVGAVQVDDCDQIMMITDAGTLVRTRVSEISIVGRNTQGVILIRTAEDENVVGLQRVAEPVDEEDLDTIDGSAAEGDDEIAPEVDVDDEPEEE", "test": "DNA gyrase supercoiling assay (E. coli)", "conditions": "for inhibition at 200 µM: conc. 200 μM", "method": "as §1, §2, §3\n(§10) Reagents from S. aureus and E. coli Gyrase Supercoiling Assay kits (Inspiralis, UK) were used. A master mix with a total volume sufficient for the number of reactions to perform was prepared with the following reagents: 5× assay buffer, relaxed pBR322 substrate (0.5 μg/reaction), RNase-DNase free water. Aliquotes of this mix were dispensed in each tube, then 10× compound stock solutions or vehicle control (DMSO), were added to each reaction tube.\n(§11) Reaction was started with E. Coli (2 U/reaction) or S. aureus (1 U/reaction) gyrase enzyme addition.\nas §4\n(§12) The reaction tubes were gentle vortexed and incubated 30 minutes at 37° C. Each reaction was stopped by adding 30 μl of Stop Buffer and 30 μl chloroform/isoamyl alcohol (24/1), briefly vortexed for 5-10 seconds and centrifuged at 20000×g for 2 minutes. Samples were loaded onto 1% agarose gel and subjected to electrophoresis for 1 hour at 80V constant voltage in TAE (40 mM Tris-acetate, 2 mM EDTA).\n(§13) Data acquisition and analysis. Treatment of relaxed pBR322 with DNA gyrase converted the relaxed topoisomers (DNAs of different linking number) to the supercoiled form of the plasmid, which migrates faster on an agarose gel. An upper band might also be visible, which consists of open-circular (nicked) DNA which is present in the relaxed substrate but co-migrates with some of the relaxed topoisomers.\n(§14) Bands were visualized by ethidium bromide staining (dilution 1:20000) for 30 minutes followed by destaining in distilled water for 10 minutes.\n(§15) In order to evaluate the compounds activity on the enzyme, the bands of supercoiled DNAs in the gel were photographed by a digital imaging system ImageQuant LAS 4000 (GE Healthcare) according to manufacturer's instructions.\nas §5, §6, §7, §8, §9"}, "S. aureus DNA gyrase": {"target": "T3, S. aureus DNA gyrase (Staphylococcus aureus, UniProt P0A0K8+P20831)", "T3 construct": "purchased Inspiralis, UK", "T3 sequence (P0A0K8 whole entry)": "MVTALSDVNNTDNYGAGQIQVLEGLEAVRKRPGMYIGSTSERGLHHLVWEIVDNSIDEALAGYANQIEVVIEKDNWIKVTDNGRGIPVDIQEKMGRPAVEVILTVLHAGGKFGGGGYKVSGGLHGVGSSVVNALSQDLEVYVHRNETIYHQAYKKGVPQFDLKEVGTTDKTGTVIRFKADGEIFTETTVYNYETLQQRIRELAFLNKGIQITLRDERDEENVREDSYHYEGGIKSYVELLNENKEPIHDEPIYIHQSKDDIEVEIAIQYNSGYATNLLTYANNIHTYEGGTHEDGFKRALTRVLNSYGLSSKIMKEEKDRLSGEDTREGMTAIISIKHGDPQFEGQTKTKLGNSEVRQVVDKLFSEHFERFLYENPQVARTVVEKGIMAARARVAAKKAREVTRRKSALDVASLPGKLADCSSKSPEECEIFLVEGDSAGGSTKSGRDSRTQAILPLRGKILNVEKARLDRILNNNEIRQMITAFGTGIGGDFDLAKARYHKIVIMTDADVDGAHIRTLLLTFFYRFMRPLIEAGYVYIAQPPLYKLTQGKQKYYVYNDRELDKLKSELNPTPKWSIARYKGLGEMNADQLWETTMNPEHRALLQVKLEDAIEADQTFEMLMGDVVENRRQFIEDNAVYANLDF", "T3 sequence (P20831 whole entry)": "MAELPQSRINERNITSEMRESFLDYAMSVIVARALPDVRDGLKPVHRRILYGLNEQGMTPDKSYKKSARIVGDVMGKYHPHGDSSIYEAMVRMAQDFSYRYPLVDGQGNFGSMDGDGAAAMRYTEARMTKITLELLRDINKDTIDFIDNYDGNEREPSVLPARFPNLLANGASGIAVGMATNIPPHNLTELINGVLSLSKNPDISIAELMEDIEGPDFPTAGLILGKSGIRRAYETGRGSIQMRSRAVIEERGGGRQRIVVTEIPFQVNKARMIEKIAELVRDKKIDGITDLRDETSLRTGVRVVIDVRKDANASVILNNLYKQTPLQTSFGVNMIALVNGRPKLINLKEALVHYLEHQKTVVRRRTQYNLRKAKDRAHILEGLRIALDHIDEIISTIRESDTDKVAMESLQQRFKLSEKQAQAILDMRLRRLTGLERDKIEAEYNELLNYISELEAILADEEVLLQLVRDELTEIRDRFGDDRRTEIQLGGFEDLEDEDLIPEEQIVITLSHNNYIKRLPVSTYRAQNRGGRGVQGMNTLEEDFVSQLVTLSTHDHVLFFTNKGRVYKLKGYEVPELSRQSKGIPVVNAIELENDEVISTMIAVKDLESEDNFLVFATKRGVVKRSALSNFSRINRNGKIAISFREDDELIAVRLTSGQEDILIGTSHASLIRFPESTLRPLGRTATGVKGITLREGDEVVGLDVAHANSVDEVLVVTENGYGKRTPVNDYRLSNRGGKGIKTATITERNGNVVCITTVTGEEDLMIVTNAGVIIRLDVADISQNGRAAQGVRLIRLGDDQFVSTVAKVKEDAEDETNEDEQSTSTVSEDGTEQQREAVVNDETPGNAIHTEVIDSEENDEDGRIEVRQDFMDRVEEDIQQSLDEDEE", "test": "DNA gyrase supercoiling assay (S. aureus)", "method": "as §1, §2, §3, §10, §11, §4, §12, §13, §14, §15, §5, §6, §7, §8, §9"}, "[1]": {"conditions": "E. coli, conc. 100 μM, n/a = not active"}, "[2]": {"conditions": "E. coli, n/a = not active, read-out: % inhibition Topo IV"}, "[3]": {"conditions": "E. coli, conc. 50 μM, n/a = not active, read-out: % inhibition Topo IV"}, "[4]": {"conditions": "E. coli, conc. 50 μM, n/a = not active"}, "[5]": {"conditions": "S. aureus, conc. 50 μM, n/a = not active"}, "[6]": {"conditions": "E. coli, concentration-response curve, eight half-log concentrations 0.1 to 300 μM, read-out: IC50 Topo IV"}, "[7]": {"conditions": "E. coli, concentration-response curve, eight half-log concentrations 0.1 to 300 μM, read-out: IC50 DNA gyrase"}, "[8]": {"conditions": "S. aureus, concentration-response curve, eight half-log concentrations 0.1 to 300 μM, read-out: IC50 DNA gyrase"}, "[9]": {"conditions": "S. aureus, conc. 100 μM, n/a = not active"}},
  "note": "Like-named read-outs stand apart in the source and are kept apart here.",
  "data": [
    {"compound": "4-chloro-2H-chromen-2-one [Compound 63]", "values": [
      {"measurement": "% inhibition Topo IV", "setting": "E. coli Topoisomerase IV; [1]", "value": 51, "unit": "%"},
      {"measurement": "% inhibition DNA gyrase", "setting": "E. coli DNA gyrase; [1]", "value": 98, "unit": "%"}
    ]},
    {"compound": "c1ccc2c(N3CCN(CCCNCc4cc5c(cn4)OCS5)CC3)nccc2c1", "note": "[Compound 46, 3-[4-(isoquinolin-1-yl)piperazin-1-yl]-N-([1,3]oxathiolo-[5,4-c]pyridin-6-ylmethyl)propan-1-amine]", "values": [
      {"measurement": "inhibition at 200 µM", "setting": "E. coli Topoisomerase IV; [2]", "value": 94, "unit": "%"},
      {"measurement": "inhibition at 200 µM", "setting": "E. coli DNA gyrase; E. coli, n/a = not active", "value": 57, "unit": "%"},
      {"measurement": "inhibition at 200 µM", "setting": "S. aureus DNA gyrase; S. aureus, conc. 200 μM, n/a = not active", "value": 100, "unit": "%"}
    ]},
    {"compound": "O=c1cc(NCCCN2CCN(c3nccc4ccccc34)CC2CO)c2ccccc2o1", "note": "(stereo not shown) [Compound 90, 4-({3-[2-(hydroxymethyl)-4-(isoquinolin-1-yl)piperazin-1-yl]-propyl}amino)-2H-chromen-2-one]", "values": [
      {"measurement": "IC50", "setting": "E. coli Topoisomerase IV", "value": 15.5, "unit": "µM"},
      {"measurement": "inhibition at 50 µM", "setting": "E. coli Topoisomerase IV; [3]", "value": 81, "unit": "%"},
      {"measurement": "IC50", "setting": "E. coli DNA gyrase", "value": 8.3, "unit": "µM"},
      {"measurement": "inhibition at 50 µM", "setting": "E. coli DNA gyrase; [4]", "value": 93, "unit": "%"},
      {"measurement": "IC50", "setting": "S. aureus DNA gyrase", "value": 9.3, "unit": "µM"},
      {"measurement": "inhibition at 50 µM", "setting": "S. aureus DNA gyrase; [5]", "value": 89, "unit": "%"}
    ]},
    {"compound": "O=c1oc2ccccc2c2[nH]c(CCN3CCN(c4nccc5ccc(F)cc45)CC3)nc12", "note": "[Compound 143, 2-{2-[4-(7-fluoroisoquinolin-1-yl)piperazin-1-yl]ethyl}chromeno[3,4-d]imidazol-4(1H)-one]", "values": [
      {"measurement": "inhibition at 50 µM", "setting": "E. coli Topoisomerase IV; [3]", "value": 91, "unit": "%"},
      {"measurement": "inhibition at 50 µM", "setting": "E. coli DNA gyrase; [4]", "value": 96, "unit": "%"},
      {"measurement": "inhibition at 50 µM", "setting": "S. aureus DNA gyrase; [5]", "value": 89, "unit": "%"}
    ]},
    {"compound": "[O-][n+]1ccc2ccc(F)cc2c1Cl", "note": "[Compound 100, 1-chloro-7-fluoroisoquinolin-2-ium-2-olate]", "values": [
      {"measurement": "% inhibition Topo IV", "setting": "E. coli Topoisomerase IV; [4]", "value": 76, "unit": "%"},
      {"measurement": "IC50", "setting": "E. coli Topoisomerase IV; [6]", "value": 10.2, "unit": "µM"},
      {"measurement": "% inhibition DNA gyrase", "setting": "E. coli DNA gyrase; [4]", "value": 95, "unit": "%"},
      {"measurement": "IC50", "setting": "E. coli DNA gyrase; [7]", "value": 4.5, "unit": "µM"},
      {"measurement": "% inhibition DNA gyrase", "setting": "S. aureus DNA gyrase; [5]", "value": 91, "unit": "%"},
      {"measurement": "IC50", "setting": "S. aureus DNA gyrase; [8]", "value": 4.7, "unit": "µM"}
    ]},
    {"compound": "C[N+]1(CCCNc2cc(=O)oc3ccccc23)CCN(c2nccc3ccccc23)CC1", "note": "[Compound 124, 4-(isoquinolin-1-yl)-1-methyl-1-{3-[(2-oxo-2H-chromen-4-yl)amino]propyl}piperazin-1-ium iodide]", "values": [
      {"measurement": "IC50", "setting": "E. coli Topoisomerase IV", "value": 6, "unit": "µM"},
      {"measurement": "inhibition at 50 µM", "setting": "E. coli Topoisomerase IV; [3]", "value": 62, "unit": "%"},
      {"measurement": "IC50", "setting": "E. coli DNA gyrase", "value": 7, "unit": "µM"},
      {"measurement": "inhibition at 50 µM", "setting": "E. coli DNA gyrase; [4]", "value": 79, "unit": "%"},
      {"measurement": "IC50", "setting": "S. aureus DNA gyrase", "value": 9, "unit": "µM"},
      {"measurement": "inhibition at 50 µM", "setting": "S. aureus DNA gyrase; [5]", "value": 75, "unit": "%"}
    ]},
    {"compound": "O=c1cc(N[C@H]2C[C@H](N3CCN(c4nccc5ccccc45)CC3)C2)c2ccccc2o1", "note": "[Compound 55, trans-4-({3-[4-(isoquinolin-1-yl)piperazin-1-yl]cyclobutyl}amino)-2H-chromen-2-one]", "values": [
      {"measurement": "IC50", "setting": "E. coli Topoisomerase IV", "value": 2.6, "unit": "µM"},
      {"measurement": "inhibition at 100 µM", "setting": "E. coli Topoisomerase IV; E. coli, conc. 100 μM, n/a = not active, read-out: % inhibition Topo IV", "value": 95, "unit": "%"},
      {"measurement": "IC50", "setting": "E. coli DNA gyrase", "value": 2.1, "unit": "µM"},
      {"measurement": "inhibition at 100 µM", "setting": "E. coli DNA gyrase; [1]", "value": 94, "unit": "%"},
      {"measurement": "IC50", "setting": "S. aureus DNA gyrase", "value": 5.6, "unit": "µM"},
      {"measurement": "inhibition at 100 µM", "setting": "S. aureus DNA gyrase; [9]", "value": 86, "unit": "%"}
    ]},
    {"compound": "O=C1Cc2cccc(CCCN3CCC(Nc4cc(=O)oc5ccccc45)CC3)c2N1", "note": "[Compound 40, 7-(3-{4-[(2-oxo-2H-chromen-4-yl)amino]piperidin-1-yl}propyl)-1,3-dihydro-2H-indol-2-one]", "values": [
      {"measurement": "inhibition at 200 µM", "setting": "E. coli Topoisomerase IV; [2]", "value": 78, "unit": "%"},
      {"measurement": "inhibition at 200 µM", "setting": "E. coli DNA gyrase; E. coli, n/a = not active", "value": 54, "unit": "%"}
    ]},
    {"compound": "1,3-dichloroisoquinoline [Compound 66]", "values": [
      {"measurement": "% inhibition Topo IV", "setting": "E. coli Topoisomerase IV; [1]", "value": 58, "unit": "%"},
      {"measurement": "IC50", "setting": "E. coli Topoisomerase IV; [6]", "value": 3.2, "unit": "µM"},
      {"measurement": "% inhibition DNA gyrase", "setting": "E. coli DNA gyrase; [1]", "value": 100, "unit": "%"},
      {"measurement": "IC50", "setting": "E. coli DNA gyrase; [7]", "value": 2.3, "unit": "µM"},
      {"measurement": "% inhibition DNA gyrase", "setting": "S. aureus DNA gyrase; [9]", "value": 87, "unit": "%"},
      {"measurement": "IC50", "setting": "S. aureus DNA gyrase; [8]", "value": 12.1, "unit": "µM"}
    ]}
  ]
}
